The test relates to Entamoeba histolytica. As to the kind of experiment: Killing of Entamoeba histolytica trophozoites in culture, with particle ingestion. The test is classed as cell-based. To be noted: drug alone. An excerpt: The particles were diol subsituted silica or aluminum- silicate particles Fig. 1), in which aldehyde groups can be formed by pretreatment with periodate that oxidizes vicinal hydroxyl groups and yields aldehyde groups. […] Schiff base was then interacted with sodium bisulfite to stabilize the bond (Fig. 2). […] One mg of dry weight silica particles contains 10⁷-10⁹ particles depending on the source.

SMILES strings stand for the structures. ≈ marks a conversion by molar mass, not a printed value.

Regarding `Cc1ncc([N+](=O)[O-])n1CCO` [Metronidazole], under “Entamoeba histolytica, over 24 h, read-out: concentration required to kill more than 95% of the trophozoites”, the EC95 is 1 to 5 µg/mL (≈ 5.84 to 29.2 µM). The “time required to kill more than 95% of the trophozoites” value (1-5 µg/ml) is listed as “over 24 h”.

The values are drawn from patent publication EP0305968A2, “Compositions against protozoal diseases” (YEDA RESEARCH AND DEVELOPMENT COMPANY LIMITED, priority 1987, dated 1989).
